# Test results from publication PMC9101642 (Molecules, 2022).
# Like-named read-outs stand apart in the source and are kept apart here. Marks after values point to notes of the source that are not given here.
# How the values were obtained:
# [1] = Serum biochemical markers after treatment of MNU-induced rats; assay type: in vivo, Wistar rats; design: TBC: unit not given here; conditions: for ALP (A/L) / ALT (A/L) / AST (U/L) / γ-GT (U/L): serum; for TBC: total bilirubin content
# Protocol: (§1) Rats were housed at 3 per cage and
# (§2) The breast cancer was induced after the MNU (Sigma Aldrich CAS No. 684-93-5) administration. An aqueous solution at a concentration of 10 mg/ml was made by wetting the NMU powder with 3% acetic acid and then dissolving it in 0.9% NaCl solution; a fresh solution was prepared for each injection. Rats were given intraperitoneal (i.p.) 50 mg/kg of MNU on the 50th day of age. Animals were divided into different groups with six animals in each group. Group I (intact control) received 0.9% NaCl solution.
# (§3) Groups II-IV and V-VII were introduced with MNU. Two weeks after MNU treatment, animals were treated orally with synthesized compounds and control substances (5 and 50 mg/kg, for groups II-IV and V-VII, respectively) by gavage once per day for six weeks. Animals in the intact control group and untreated MNU group were given vehicle (Tween 80) according to the experimental protocol. […]
# Upon finishing the treatment with synthesized compounds, animals were sacrificed, and plasma, serum, and liver samples were collected.
# Measurement of Serum Biochemical Markers
# The activities of AST and ALT on 340 nm, and ALP on 405 nm, were determined by UV-Vis kinetic methods according to recommendations of the Expert Panel of the IFCC (International Federation of Clinical Chemistry). The colorimetric methods were used for the determination of total bilirubin (Jendrassik-Grof 550 nm method). All kinetic and colorimetric measurements were recorded using a Perkin-Elmer Lambda 25 UV/Vis spectrophotometer. […]
# [2] = Liver oxidative stress markers after treatment of MNU-induced rats; assay type: in vivo, Wistar rats; design: CAT: unit not given here; conditions: liver; for CAT: catalase activity; for GSH: reduced glutathione; for SOD (U/mg): superoxide dismutase activity; for TP: total protein content
# Protocol: as §1, §2, §3
# (§4) Upon finishing the treatment with synthesized compounds, animals were sacrificed, and plasma, serum, and liver samples were collected. […]
# Determination of Antioxidant Markers in Liver Homogenate
# Rat liver samples were homogenized in phosphate buffer (5 mM, pH = 7.4) to give a 10% (w/v) liver homogenate and then centrifuged at 4000 rpm for 15 min at 4°C. The supernatant of liver homogenate was used for the estimation of reduced glutathione (GSH) and catalase (CAT) levels by the colorimetric method. The contents of malondialdehyde (MDA) in the supernatant of the liver homogenates were determined using 1,1,3,3-tetraethoxypropane as standard. Total protein concentrations were determined according to the method of Lowry using bovine serum albumin as […]
# [3] = test system: MNU-induced breast cancer; test: In vivo anticancer screening, MNU-induced mammary tumorigenesis; design: species or system female Wistar rats
# [4] = Lipophilicity by shake-flask method; conditions: pH 7.4
# [5] = MTT antiproliferative assay (neutral control); conditions: human
# [6] = Plasma protein binding determination; assay type: in vitro ADME, rat; conditions: rat plasma, 37 °C, read-out: Rat PPB (%free)
# Protocol: as §1, §2, §3, §4
# Rat plasma containing either 5 or 50 mg/kg bwt of the tested compounds was incubated at 37°C upper reservoir of the washed Centri-free YM-30 ultrafiltration units (Millipore, Bedford, MA) and then centrifuged for 20 min at 2,000 g. Aliquots of the ultrafiltrates and unfiltered incubation mixtures were analyzed for the total protein concentration by the bicinchoninic acid assay for protein concentration (BCA assay; Pierce, Rockford, IL).
# MDA-MB-231 cell lines = test: MTT antiproliferative assay; assay type: cell-based, human; conditions: read-out: MDA-MB-231 (IC50 nM)
# MCF-7 cell lines = test: MTT antiproliferative assay; assay type: cell-based, human; conditions: read-out: MCF-7 (IC50 nM)
# MCF-7 cells = test: Cell cycle distribution by flow cytometry; assay type: cell-based, human; conditions: 24 h
# [7] = test system: Ishikawa endometrial adenocarcinoma cells; test: Antiproliferative assay; assay type: cell-based; conditions: Homo sapiens, growth inhibition
# Source text: As SERMs profile is often associated with the stimulation of endometrial cell proliferation and an increase in the incidence of endometrial cancer (EC), the herein compounds were therefore evaluated against Ishikawa endometrial adenocarcinoma cells (Table 8, Supplementary Material Figures […]). […] However, future experimental elaboration, currently beyond the authors' experimental facilities, is required to confirm compounds' promising profiles in terms of no EC induction.
# ERβ = ERβ (Homo sapiens, UniProt Q92731); test: Fluorescence polarization competition assay: antagonistic potency and relative binding affinity; conditions: for logRBA ERβ: log of % relative binding affinity, estradiol = 100%
# ERβ, sequence (Q92731 whole entry): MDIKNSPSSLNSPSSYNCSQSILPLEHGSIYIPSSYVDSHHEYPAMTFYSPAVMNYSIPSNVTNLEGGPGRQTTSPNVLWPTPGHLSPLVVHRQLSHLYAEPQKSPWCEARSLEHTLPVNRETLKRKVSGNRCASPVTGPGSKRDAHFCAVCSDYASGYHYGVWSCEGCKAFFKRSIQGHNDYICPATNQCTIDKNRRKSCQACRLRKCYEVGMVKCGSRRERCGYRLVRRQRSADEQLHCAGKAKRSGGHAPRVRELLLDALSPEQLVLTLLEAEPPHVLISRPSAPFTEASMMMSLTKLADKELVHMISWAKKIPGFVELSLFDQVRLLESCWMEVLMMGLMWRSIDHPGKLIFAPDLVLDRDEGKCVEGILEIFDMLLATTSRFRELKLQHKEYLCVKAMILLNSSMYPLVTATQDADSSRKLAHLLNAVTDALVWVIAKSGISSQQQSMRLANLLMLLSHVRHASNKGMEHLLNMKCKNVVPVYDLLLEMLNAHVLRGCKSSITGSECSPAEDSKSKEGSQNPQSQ
# [8] = Pharmacokinetics study, oral bioavailability; conditions: rat
# [9] = test system: progesterone receptor (PR); test: ERα functional antagonism cell assay (PR as biomarker) in MCF-7; assay type: cell-based; conditions: Homo sapiens, MCF7; progesterone receptor as biomarker for ERα antagonism in MCF-7
# [10] = test system: MNU-induced breast cancer tissue; test: Histopathology of breast sections; assay type: in vivo, Wistar rats
# Source text: The impact of selected leads on BC tissue was registered after their administration to experimental animals with MNU-induced BC (Figure 9 and Supplementary Material Figures S211–S218). […] In contrast to this, the administered leads were harmless in both concentrations, neutralizing the MNU-induced changes, judging by the lobuloalveolar units and cuboidal epithelial cells found (Figure 9C,D, and Supplementary Material Figures S214–S218). […]
# Histopathological Studies
# histopathological changes. […]
# [11] = dose 50 mg/kg (compounds per os after MNU; MNU alone i.p.)
# [12] = MFD 1000 mg/kg (MNU: MTD 100 mg/kg bwt), 5 days
compound,measurement,setting,value
"CC(=O)c1cc(C(=O)O[C@@H]2/C=C/C(=O)O[C@@H](O)CCC/C=C/[C@@H]3C[C@H](O)C[C@H]32)ccc1OCCS(=O)(=O)O [Compound 3DPQ-4, 2-(2-acetyl-4-((((1R,2E,6R,10E,11aS,13S,14aR)-6,13-dihydroxy-4-oxo-4,6,7,8,9,11a,12,13,14,14a-decahydro-1H-cyclopenta[f][1]oxacyclotridecin-1-yl)oxy)carbonyl)phenoxy)ethanesulfonic acid]",ALP (A/L),[1]; dose 5 mg/kg,99.41±0.15 A/L
same,ALT (A/L),[1]; dose 5 mg/kg,55.87±0.62 A/L
same,AST (U/L),[1]; dose 5 mg/kg,57.53±0.43 U/L
same,γ-GT (U/L),[1]; dose 5 mg/kg,11.54±0.53 U/L
same,ALP (A/L),[1]; dose 50 mg/kg,104.52±0.31 A/L
same,ALT (A/L),[1]; dose 50 mg/kg,59.74±0.1 A/L
same,AST (U/L),[1]; dose 50 mg/kg,59.46±0.63 U/L
same,γ-GT (U/L),[1]; dose 50 mg/kg,13.46±0.55 U/L
same,TBC,[1]; dose 5 mg/kg,19.31
same,TBC,[1]; dose 50 mg/kg,22.74
same,CAT,[2]; dose 5 mg/kg,16.34±0.73
same,CAT,[2]; dose 50 mg/kg,16.43±0.66
same,TBARS,[2]; dose 5 mg/kg,0.65 ± 0.21 nmol/mg
same,TBARS,[2]; dose 50 mg/kg,0.65 ± 0.34 nmol/mg
same,GSH,[2]; dose 5 mg/kg,9.87 mg/g
same,GSH,[2]; dose 50 mg/kg,10.36 mg/g
same,SOD (U/mg),[2]; dose 5 mg/kg,8.73±0.38 U/mg
same,SOD (U/mg),[2]; dose 50 mg/kg,10.57±0.73 U/mg
same,TP,[2]; dose 50 mg/kg,48.54 g/L
same,Tumor Burden (week),[3]; dose 5 mg/kg per os after MNU,"2.39 ± 0.56 *^,†,‡,‖ week"
same,Tumor Latency (week),[3]; dose 5 mg/kg per os after MNU,"10 *^,† week"
same,Tumor Volume (mm^3),[3]; dose 5 mg/kg per os after MNU,"0.98 ± 0.31 *^,†,‡,‖ mm^3"
same,Tumor Burden (week),[3]; [11],"1.33 ± 0.15 *^,†,§,┴ week"
same,Tumor Latency (week),[3]; [11],"14 *^,† week"
same,Tumor Volume (mm^3),[3]; [11],"0.41 ± 0.23 *^,†,§,┴ mm^3"
same,logD at 30 min,[4],1.88
same,IC50 at 48 h,[5],> 100 nM
same,fraction unbound at 5 mg/kg bwt,[6],0.0123
same,fraction unbound at 50 mg/kg bwt,[6],0.0151
same,IC50,"MDA-MB-231 cell lines; Homo sapiens, MDA-MB-231, growth inhibition, 48 h",67.31 ± 0.34 nM
same,IC50,"MCF-7 cell lines; Homo sapiens, MCF7, growth inhibition, 48 h",0.64 ± 0.15 nM
same,Cell Cycle (%) G0/G1,MCF-7 cells; 0.1 nM,"77.78 ± 3.54 *^,†,‡,§ %"
same,Cell Cycle (%) G2/M,MCF-7 cells; 0.1 nM,"15.02 ± 4.23 *^,†,‡,§ %"
same,Cell Cycle (%) S,MCF-7 cells; 0.1 nM,"7.20 ± 2.88 *^,†,‡,§ %"
same,Cell Cycle (%) G0/G1,MCF-7 cells; 1 nM,"80.24 ± 2.53 *^,†,‡,§ %"
same,Cell Cycle (%) G2/M,MCF-7 cells; 1 nM,"11.86 ± 3.43 *^,†,‡,§ %"
same,Cell Cycle (%) S,MCF-7 cells; 1 nM,"7.91 ± 0.1.54 *^,†,‡,§ %"
same,"WL after MFD (day 1, mg)","rat, in vivo",320.73 ± 0.36 mg
same,IC50,[7],0.92 ± 0.43 nM
same,Ki,"ERβ; calculated antagonistic (inhibitory) constant, read-out: Ka ERβ",46.3 nM
same,IC50,"ERβ; concentration that antagonizes 50% of ERβ signaling activity, read-out: ERβ (IC50 nM)",82.45 ± 0.54 nM
same,logRBA ERβ,ERβ,"0.03 ^†,‡,§"
same,BIO,[8]; oral 5 mg/kg,90
same,BIO,[8]; oral 50 mg/kg,93
same,IC50,[9],> 100 nM
same,breast section histopathology,[10]; 5 mg/kg of bwt,lobuloalveolar unit (LaU) and cuboidal epithelial cells (CE)
same,breast section histopathology,[10]; 50 mg/kg of bwt,lobuloalveolar unit (LaU) and cuboidal epithelial cells (CE)
"CC/C(=C(\c1ccc(O)cc1)c1ccc(OCCN(C)C)cc1)c1ccccc1 [Compound 4-OHT., 4-hydroxytamoxifen, reference compound]",ALP (A/L),[1]; dose 5 mg/kg,105.32±0.31 A/L
same,ALT (A/L),[1]; dose 5 mg/kg,52.44±0.31 A/L
same,AST (U/L),[1]; dose 5 mg/kg,53.76±0.32 U/L
same,γ-GT (U/L),[1]; dose 5 mg/kg,16.54 U/L
same,ALP (A/L),[1]; dose 50 mg/kg,131.43±0.43 A/L
same,ALT (A/L),[1]; dose 50 mg/kg,59.63±0.32 A/L
same,AST (U/L),[1]; dose 50 mg/kg,58.41±0.25 U/L
same,γ-GT (U/L),[1]; dose 50 mg/kg,18.47±0.45 U/L
same,TBC,[1]; dose 5 mg/kg,23.56
same,TBC,[1]; dose 50 mg/kg,25.57
same,CAT,[2]; dose 5 mg/kg,13.56±0.88
same,CAT,[2]; dose 50 mg/kg,20.46±0.76
same,TBARS,[2]; dose 50 mg/kg,3.63 ± 0.32 nmol/mg
same,GSH,[2]; dose 5 mg/kg,4.67 mg/g
same,GSH,[2]; dose 50 mg/kg,3.33 mg/g
same,SOD (U/mg),[2]; dose 5 mg/kg,4.87±0.72 U/mg
same,SOD (U/mg),[2]; dose 50 mg/kg,7.46±0.34 U/mg
same,TP,[2]; dose 50 mg/kg,47.46 g/L
same,Tumor Burden (week),[3]; dose 5 mg/kg per os after MNU,"3.36 ± 0.38 *^,†,‖ week"
same,Tumor Latency (week),[3]; dose 5 mg/kg per os after MNU,7 * week
same,Tumor Volume (mm^3),[3]; dose 5 mg/kg per os after MNU,"1.88 ± 0.35 *^,†,‖ mm^3"
same,Tumor Burden (week),[3]; [11],"3.22 ± 0.21 *^,†,┴ week"
same,Tumor Latency (week),[3]; [11],"10 *^,† week"
same,Tumor Volume (mm^3),[3]; [11],"1.35 ± 0.63 *^,†,┴ mm^3"
same,logD at 30 min,[4]; n-octanol/phosphate buffer,3.64
same,IC50 at 48 h,"[5]; MRC-5 lung fibroblast cells, MRC-5 (IC50 nM), growth inhibition",> 10 nM
same,IC50 at 48 h,"[5]; MRC-5 lung fibroblast cells, MRC-5 (IC50 nM), references in Table S17",> 100 nM
same,fraction unbound at 5 mg/kg bwt,[6],0.0185
same,fraction unbound at 50 mg/kg bwt,[6],0.0252
same,IC50,"MDA-MB-231 cell lines; growth inhibition, 48 h",37.1 ± 0.45 nM
same,IC50,MDA-MB-231 cell lines; references in Table S17,37.04 ± 0.32 nM
same,IC50,"MCF-7 cell lines; growth inhibition, 48 h",1.19 ± 0.57 nM
same,IC50,MCF-7 cell lines; references in Table S17,1.24 ± 0.32 nM
same,Cell Cycle (%) G0/G1,MCF-7 cells; 0.1 nM,"57.22 ± 0.37 *^,†,§ %"
same,Cell Cycle (%) G2/M,MCF-7 cells; 0.1 nM,"24.02 ± 0.53 *^,,†§ %"
same,Cell Cycle (%) S,MCF-7 cells; 0.1 nM,"18.76 ± 0.41 *^,†,§ %"
same,Cell Cycle (%) G0/G1,MCF-7 cells; 1 nM,"63.26 ± 0.41 *^,†,§ %"
same,Cell Cycle (%) G2/M,MCF-7 cells; 1 nM,"15.60 ± 0.15 *^,†,§ %"
same,Cell Cycle (%) S,MCF-7 cells; 1 nM,"21.14 ± 0.25 *^,†,§ %"
same,colon section histopathology,[12],no morphological changes
same,heart section histopathology,[12],no morphological changes
same,kidney section histopathology,[12],no morphological changes
same,liver section histopathology,[12],no morphological changes
same,lung section histopathology,[12],no morphological changes
same,spleen section histopathology,[12],no morphological changes
same,"WL after MFD (day 1, mg)","average body weight at day 1, dosing at MFD",305.84 ± 0.59 mg
same,"WL after MFD (day 5, mg)","average body weight at day 5, dosing at MFD",297.65 ± 0.39 mg
same,MFD (5 days),"maximum feasible (or tolerated) dose, 5 days per os, 5-1000 mg/kg bwt",1000 mg/kg
same,IC50,[7],1.29 ± 0.43 nM
same,logRBA ERβ,ERβ,1.39 ^†
same,BIO,[8]; oral 5 mg/kg,88 ^‖
same,BIO,[8]; oral 50 mg/kg,94
same,IC50,[9],> 100 nM
same,breast section histopathology,[10]; 5 mg/kg of bwt,necrosis (NEC)
same,breast section histopathology,[10]; 50 mg/kg of bwt,necrosis (NEC)
